Results on nine compounds are retold here after patent publication US12275734B1, “Pleuromutilin onium salt derivative containing a 3H-imidazo[4,5-c]pyridine side chain, and a preparation method and application thereof” (SHAANXI UNIVERSITY OF SCIENCE AND TECHNOLOGY, priority 2024, dated 2025).

Holding throughout (test): MIC, broth microdilution
Holding throughout (format): cell-based

Assay [1] relates to A. baumannii ATCC 19606. To be noted: Acinetobacter baumannii, ATCC19606; A. baumannii ATCC 19606; read-out: Minimum inhibitory concentration A.b.^f. Here is the method: (§1) The minimum inhibitory concentration of 3H-imidazo[4,5-C]pyridine pleuromutilin onium salt derivatives against the tested pathogenic microorganisms were determined by broth microdilution method, with valnemulin and retapamulin as positive controls.
(§2) The experimental strains included resistant Gram-positive bacteria: Methicillin-resistant S. aureus ATCC 33591; Methicillin-resistant S. aureus ATCC 43300; S. aureus ATCC 29213; Methicillin-resistant S. epidermidis ATCC 51625. Resistant Gram-negative bacteria: A. baumannii ATCC 19606; S. enterica ATCC14028; E. coli ATCC 25922; E. coli CMCC 44103. 9 clinically isolated resistant strains: MRSA-171; MRSA-575; MRSA-206; MRSA-222; MRSA-596; VRE-80; MDR-PA-126; MDR-KP-893; CR-AB-882.
(§3) (1) Preparation of MHB medium: Weigh 18.0 g of MHB medium pre-made powder, add it to 1 L of distilled water, heat and boil until completely dissolved, divide it into conical bottles, sterilize it by high pressure at 121° C. for 15 minutes, and set aside.
(§4) (2) Cultivate the experimental strain to the logarithmic growth phase: Under sterile conditions, inoculate the experimental strain into fresh MHB medium and culture it in a 37° C. constant temperature and humidity incubator for 16-24 hours. Adjust the bacterial solution concentration to 1.5×10^8 CFU/mL and then dilute it 200 times for later use.
(§5) (3) Preparation of storage solution: Weigh the sample to be tested, dissolve it in 1% DMSO solution, and prepare a storage solution with a concentration of 2560 μg/mL; weigh the positive control, dissolve it in sterile distilled water, and prepare a storage solution with a concentration of 2560 μg/mL.
(§6) (4) Preparation of bacterial suspension: Under sterile conditions, the experimental strain cultured to the logarithmic growth phase was calibrated to a 0.5 McFarland unit turbidity standard using MHB medium and then diluted at a ratio of 1:200 to prepare a bacterial suspension with a concentration of 5×10^5 CFU/mL for later use.
(§7) (5) Determination of MIC by two-fold microdilution method: Take a sterile 96-well plate, add 10 μL of the test compound at a concentration of 2560 μg/mL, and perform serial dilutions by the two-fold dilution method. At the same time, set up a negative control group without drug. Then add 190 μL of diluted bacterial solution to each well, so that the final bacterial solution concentration in each well is 5×10^5 CFU/mL, and incubate in a 37° C. constant temperature and humidity chamber for 24 hours.

The test system of assay [2] is E. coli ATCC 25922. Conditions: Escherichia coli, ATCC25922; E. coli ATCC 25922; read-out: Minimum inhibitory concentration E.c.^h. How it is done: as §1, §2, §3, §4, §5, §6, §7
Assay [3] relates to E.coli CMCC 44103. Conditions: Escherichia coli, CMCC44103; E.coli CMCC 44103; read-out: Minimum inhibitory concentration E.c.^i. How it is done: as §1, §2, §3, §4, §5, §6, §7
Assay [4] has as its system Methicillin-resistant S. aureus ATCC 33591. Conditions: Staphylococcus aureus, ATCC 33591 / MRSA; Methicillin-resistant S. aureus ATCC 33591; read-out: Minimum inhibitory concentration MRSA^b. Here is the method: as §1, §2, §3, §4, §5, §6, §7
In assay [5] the test system is Methicillin-resistant S. aureus ATCC 43300. Conditions: Staphylococcus aureus, ATCC 43300 / MRSA; Methicillin-resistant S. aureus ATCC 43300; read-out: Minimum inhibitory concentration MRSA^c. How it is done: as §1, §2, §3, §4, §5, §6, §7
In assay [6] the test system is Methicillin-resistant S. epidermidis ATCC 51625. Conditions: Staphylococcus epidermidis, ATCC 51625 / MRSE; Methicillin-resistant S. epidermidis ATCC 51625; read-out: Minimum inhibitory concentration MRSE^e. How it is done:
as §1, §2, §3, §4, §5, §6, §7

In assay [7] the test system is S. aureus ATCC 29213. Conditions: Staphylococcus aureus, ATCC29213; S. aureus ATCC 29213; read-out: Minimum inhibitory concentration S.a.^d. How it is done: as §1, §2, §3, §4, §5, §6, §7
Assay [8] deals with S. enterica ATCC14028. Conditions: Salmonella enterica; S. enterica ATCC14028; read-out: Minimum inhibitory concentration S.e.^g. Here is the method:
as §1, §2, §3, §4, §5, §6, §7

Turning to `C=C[C@]1(C)C[C@@H](OC(=O)CSc2nc3cc[n+](Cc4cc(OC)cc(OC)c4)cc3[nH]2)[C@]2(C)[C@H](C)CC[C@]3(CCC(=O)[C@H]32)[C@@H](C)[C@@H]1O` [Compound n, 5-(3,5-dimethoxybenzyl)-2-((2-(((3aR,4R,5R,7S,8S,9R,9aS,12R)-8-hydroxy-4,7,9,12-tetramethyl-3-oxo-7-vinyldecahydro-4,9a-propancyclopenta[8]cyclo-5-yl)oxy)-2-oxoethyl)thio)-3H-imidazo[4,5-C]pyridine-5-ium], the MIC came to 64 µg/mL in assay [1]; 64 µg/mL in assay [2]; 32 µg/mL in assay [3]; 64 µg/mL in assay [4]; 32 µg/mL in assay [5]; 64 µg/mL in assay [6]. For the same compound, the MIC in assay [7] stood at 32 µg/mL; in assay [8], 128 µg/mL.

Turning to `C=C[C@]1(C)C[C@@H](OC(=O)CSc2nc3cc[n+](Cc4ccc(F)cc4)cc3[nH]2)[C@]2(C)[C@H](C)CC[C@]3(CCC(=O)[C@H]32)[C@@H](C)[C@@H]1O` [Compound c, 5-(4-fluorobenzyl)-2-((2-(((3aR,4R,5R,7S,8S,9R,9aS,12R)-8-hydroxy-4,7,9,12-tetramethyl-3-oxo-7-vinyldecahydro-4,9a-propancyclopenta[8]cyclo-5-yl)oxy)-2-oxoethyl)thio)-3H-imidazo[4,5-C]pyridine-5-ium], the MIC turned out to be 32 µg/mL in assay [1]; 8 µg/mL in assay [2]; 8 µg/mL in assay [3]; 8 µg/mL in assay [4]; 16 µg/mL in assay [5]; 16 µg/mL in assay [6]. Moreover, the MIC in assay [7] came to 4 µg/mL; in assay [8] it was 16 µg/mL.

In the case of `C=C[C@]1(C)C[C@@H](OC(=O)CSc2nc3cc[n+](Cc4ccc(C(C)(C)C)cc4)cc3[nH]2)[C@]2(C)[C@H](C)CC[C@]3(CCC(=O)[C@H]32)[C@@H](C)[C@@H]1O` [Compound k, 5-(4-(tert-butyl)benzyl)-2-((2-(((3aR,4R,5R,7S,8S,9R,9aS,12R)-8-hydroxy-4,7,9,12-tetramethyl-3-oxo-7-vinyldecahydro-4,9a-propancyclopenta[8]cyclo-5-yl)oxy)-2-oxoethyl)thio)-3H-imidazo[4,5-C]pyridine-5-ium], the MIC was found to be 16 µg/mL in assay [1]; 32 µg/mL in assay [2]; 32 µg/mL in assay [3]; 8 µg/mL in assay [4]; 32 µg/mL in assay [5]; 8 µg/mL in assay [6]. The MIC was determined as 16 µg/mL in assay [7] and 32 µg/mL in assay [8].

For the compound `C=C[C@]1(C)C[C@@H](OC(=O)CSc2nc3cc[n+](Cc4cc(F)c(F)cc4F)cc3[nH]2)[C@]2(C)[C@H](C)CC[C@]3(CCC(=O)[C@H]32)[C@@H](C)[C@@H]1O` [Compound g, 5-(2,4,5-trifluorobenzyl)-2-((2-(((3aR,4R,5R,7S,8S,9R,9aS,12R)-8-hydroxy-4,7,9,12-tetramethyl-3-oxo-7-vinyldecahydro-4,9a-propancyclopenta[8]cyclo-5-yl)oxy)-2-oxoethyl)thio)-3H-imidazo[4,5-C]pyridine-5-ium], the MIC in assay [1] stood at 64 µg/mL; in assay [2] it was 64 µg/mL; in assay [3] it was 128 µg/mL; in assay [4], 128 µg/mL; in assay [5] it was 64 µg/mL; in assay [6], 64 µg/mL. In addition, the MIC in assay [7] turned out to be 64 µg/mL; in assay [8] it was 128 µg/mL.

For `C=C[C@]1(C)C[C@@H](OC(=O)CSc2nc3cc[n+](Cc4ccc(Cl)cc4)cc3[nH]2)[C@]2(C)[C@H](C)CC[C@]3(CCC(=O)[C@H]32)[C@@H](C)[C@@H]1O` [Compound e, 5-(4-chlorobenzyl)-2-((2-(((3aR,4R,5R,7S,8S,9R,9aS,12R)-8-hydroxy-4,7,9,12-tetramethyl-3-oxo-7-vinyldecahydro-4,9a-propancyclopenta[8]cyclo-5-yl)oxy)-2-oxoethyl)thio)-3H-imidazo[4,5-C]pyridine-5-ium], the MIC was 16 µg/mL in assay [1]; 32 µg/mL in assay [2]; 16 µg/mL in assay [3]; 32 µg/mL in assay [4]; 16 µg/mL in assay [5]; 16 µg/mL in assay [6]. For the same compound, the MIC in assay [7] stood at 8 µg/mL; in assay [8] it was 32 µg/mL.

For `C=C[C@]1(C)C[C@@H](OC(=O)CSc2nc3cc[n+](Cc4ccc(Br)cc4)cc3[nH]2)[C@]2(C)[C@H](C)CC[C@]3(CCC(=O)[C@H]32)[C@@H](C)[C@@H]1O` [Compound a, 5-(4-bromobenzyl)-2-((2-(((3aR,4R,5R,7S,8S,9R,9aS,12R)-8-hydroxy-4,7,9,12-tetramethyl-3-oxo-7-vinyldecahydro-4,9a-propancyclopenta[8]cyclo-5-yl)oxy)-2-oxoethyl)thio)-3H-imidazo[4,5-c]pyridin-5-ium], the MIC in assay [1] is 32 µg/mL; in assay [2] it was 16 µg/mL; in assay [3] it was 8 µg/mL; in assay [4] it was 8 µg/mL; in assay [5], 4 µg/mL; in assay [6], 16 µg/mL. Also, the results for the MIC in assay [7] and in assay [8] were 8 µg/mL and 4 µg/mL, respectively.

Take `C=C[C@]1(C)C[C@@H](OC(=O)CSc2nc3cc[n+](Cc4ccc([N+](=O)[O-])cc4)cc3[nH]2)[C@]2(C)[C@H](C)CC[C@]3(CCC(=O)[C@H]32)[C@@H](C)[C@@H]1O` [Compound f, 5-(4-nitrobenzyl)-2-((2-(((3aR,4R,5R,7S,8S,9R,9aS,12R)-8-hydroxy-4,7,9,12-tetramethyl-3-oxo-7-vinyldecahydro-4,9a-propancyclopenta[8]cyclo-5-yl)oxy)-2-oxoethyl)thio)-3H-imidazo[4,5-C]pyridine-5-ium]: the MIC in assay [1] was 8 µg/mL; in assay [2] it was 16 µg/mL; in assay [3], 8 µg/mL; in assay [4], 8 µg/mL; in assay [5] it was 2 µg/mL; in assay [6], 4 µg/mL. For the same compound, the MIC in assay [7] and in assay [8] was 4 µg/mL throughout.

Turning to `C=C[C@]1(C)C[C@@H](OC(=O)CSc2nc3cc[n+](Cc4cc(C)cc(C)c4)cc3[nH]2)[C@]2(C)[C@H](C)CC[C@]3(CCC(=O)[C@H]32)[C@@H](C)[C@@H]1O` [Compound l, 5-(3,5-dimethylbenzyl)-2-((2-(((3aR,4R,5R,7S,8S,9R,9aS,12R)-8-hydroxy-4,7,9,12-tetramethyl-3-oxo-7-vinyldecahydro-4,9a-propancyclopenta[8]cyclo-5-yl)oxy)-2-oxoethyl)thio)-3H-imidazo[4,5-C]pyridine-5-ium], the MIC stood at 64 µg/mL in assay [1]; 64 µg/mL in assay [2]; 64 µg/mL in assay [3]; 64 µg/mL in assay [4]; 32 µg/mL in assay [5]; 64 µg/mL in assay [6]. The MIC is 64 µg/mL in assay [7] and 32 µg/mL in assay [8].

For `C=C[C@]1(C)C[C@@H](OC(=O)CSc2nc3cc[n+](Cc4ccc(C(F)(F)F)cc4)cc3[nH]2)[C@]2(C)[C@H](C)CC[C@]3(CCC(=O)[C@H]32)[C@@H](C)[C@@H]1O` [Compound b, 5-(4-trifluoromethyl)-2-((2-(((3aR,4R,5R,7S,8S,9R,9aS,12R)-8-hydroxy-4,7,9,12-tetramethyl-3-oxo-7-vinyldecahydro-4,9a-propancyclopenta[8]cyclo-5-yl)oxy)-2-oxoethyl)thio)-3H-imidazo[4,5-C]pyridine-5-ium], the MIC in assay [1] is 64 µg/mL; in assay [2] it was 32 µg/mL; in assay [3], 16 µg/mL; in assay [4], 32 µg/mL; in assay [5], 64 µg/mL; in assay [6], 32 µg/mL. Also, the MIC came out at 64 µg/mL in assay [7] and 16 µg/mL in assay [8].
